# Experimental data published in patent publication US4479951A, “1.4;3.6-Dianhydrohexitol nitrates substituted by purine bases, processes for their preparation and pharmaceutical compositions” (Dr. Willmar Schwabe GmbH & Co., priority 1980, dated 1984).
# Experiments:
# guinea pigs = test: blood pressure-lowering effectiveness on narcotised guinea pigs, intravenous; format: in vivo, guinea pig; settings: for blood pressure previously: before administration
# [1] = acute toxicity, intravenous; format: in vivo; settings: mouse, in vivo, iv; within 24 hours; read-out: Evaluated LD50-range
# female NMRI-albino mice = test: acute toxicity, intravenous; format: in vivo; settings: within 24 hours
# [2] = tested on: isolated rat aorta preparations; test: spasmolytic effectiveness, noradrenaline-induced contractions; settings: read-out: ED50 noradrenaline spasm
# [3] = tested on: isolated rat aorta preparations; test: spasmolytic effectiveness, potassium chloride-induced contractions; settings: read-out: ED50 potassium chloride spasm
Compound,blood pressure afterwards (guinea pigs; 0.25 mg/kg i.v.) [mm. Hg],blood pressure Δ (guinea pigs; 0.25 mg/kg i.v.) [mm. Hg],blood pressure previously (guinea pigs; 0.25 mg/kg i.v.) [mm. Hg],blood pressure afterwards (guinea pigs; 1.00 mg/kg i.v.) [mm. Hg],blood pressure Δ (guinea pigs; 1.00 mg/kg i.v.) [mm. Hg],blood pressure previously (guinea pigs; 1.00 mg/kg i.v.) [mm. Hg],blood pressure afterwards (guinea pigs; 2.50 mg/kg i.v.) [mm. Hg],blood pressure Δ (guinea pigs; 2.50 mg/kg i.v.) [mm. Hg],blood pressure previously (guinea pigs; 2.50 mg/kg i.v.) [mm. Hg],LD50 at 24 h [1] [mg/kg],Frequency of death (female NMRI-albino mice; 50 mg/kg i.v.),Frequency of death (female NMRI-albino mice; 100 mg/kg i.v.),Frequency of death (female NMRI-albino mice; 200 mg/kg i.v.),IC50 [2] [nM],IC50 [3] [nM]
"O=[N+]([O-])O[C@H]1CO[C@H]2[C@@H]1OC[C@@H]2n1cnc2c(N3CCCC3)ncnc21 [Example 6b, 5-(6-Pyrrolidinopurin-9-yl)-5-desoxy-1.4;3.6-dianhydro-L-iditol 2-nitrate]",51.50 ± 4.94,-13.50,65.00 ± 4.02,44.75 ± 2.84,-20.75,65.50 ± 2.36,37.25 ± 1.11,-24.75,62.00 ± 2.04,50 to 100,0/3,3/3,3/3,540,4070
"O=[N+]([O-])O[C@H]1CO[C@H]2[C@@H]1OC[C@@H]2n1cnc2c(NCc3ccccc3)ncnc21 [Example 13b, 5-(6-Benzylaminopurin-9-yl)-5-desoxy-1.4;3.6-dianhydro-L-iditol 2-nitrate]",,,,,,,,,,,,,,16.8,2400
"O=[N+]([O-])O[C@@H]1CO[C@H]2[C@@H]1OC[C@@H]2O [ISMN, 1.4;3.6-dianhydro-D-glucitol 2-nitrate, reference compound]",53.90 ± 3.10,,57.60 ± 3.10,48.40 ± 3.20,,54.70 ± 3.80,41.40 ± 3.90,,52.30 ± 4.80,,,,,,
"CNc1ncnc2c1ncn2[C@H]1CO[C@H]2[C@@H]1OC[C@@H]2O[N+](=O)[O-] [Example 3c, 5-(6-Methylaminopurin-9-yl)-5-desoxy-1.4;3.6-dianhydro-L-iditol 2-nitrate]",79.25 ± 2.56,-0.25,79.50 ± 2.50,71.50 ± 3.97,-8.00,79.50 ± 2.66,61.50 ± 3.23,-15.50,77.00 ± 2.80,100 to 200,,0/6,3/3,480,4600
"CC(C)(C)C(=O)Nc1ncnc2c1ncn2[C@H]1CO[C@H]2[C@@H]1OC[C@@H]2O[N+](=O)[O-] [Example 10, 5-[9-(6-N-Pivaloyl)-adenyl]-5-desoxy-1.4;3.6-dianhydro-L-iditol 2-nitrate]",,,,,,,,,,,,,,302,6500
"Cn1c(=O)c2c(ncn2[C@H]2CO[C@H]3[C@@H]2OC[C@@H]3O[N+](=O)[O-])n(C)c1=O [Example 12b, 5-(7-Theophyllinyl)-5-desoxy-1.4;3.6-dianhydro-L-iditol 2-nitrate]",,,,,,,,,,,,,,3200,4200
"CN(C)c1ncnc2c1ncn2[C@H]1CO[C@H]2[C@@H]1OC[C@@H]2O[N+](=O)[O-] [Example 4b, 5-(6-Dimethylaminopurin-9yl)-5-desoxy-1.4;3.6-dianhydro-L-iditol 2-nitrate]",63.25 ± 4.23,-10.50,73.75 ± 2.14,59.00 ± 1.47,-15.00,74.00 ± 1.91,43.50 ± 2.50,-28.50,72.00 ± 2.45,50 to 100,0/3,3/3,3/3,220,29000
"O=[N+]([O-])O[C@H]1CO[C@H]2[C@@H]1OC[C@@H]2n1cnc2c(N3CCOCC3)ncnc21 [Example 8b, 5-(6-Morpholinopurin-9-yl)-5-desoxy-1.4;3.6-dianhydro-L-iditol 2-nitrate]",,,,,,,,,,,,,,290,3000
"O=[N+]([O-])O[C@H]1CO[C@H]2[C@@H]1OC[C@@H]2n1cnc2c(N3CCCCC3)ncnc21 [Example 7b, 5-(6-Piperidinopurin-9-yl)-5-desoxy-1.4;3.6-dianhydro-L-iditol 2-nitrate]",,,,,,,,,,,,,,240,2900
"CCNc1ncnc2c1ncn2[C@H]1CO[C@H]2[C@@H]1OC[C@@H]2O[N+](=O)[O-] [Example 5b, 5-(6-Ethylaminopurin-9-yl)-5-desoxy-1.4;3.6-dianhydro-L-iditol 2-nitrate]",71.00 ± 5.04,-5.50,76.50 ± 2.66,65.75 ± 3.75,-12.75,78.50 ± 1.70,51.00 ± 3.13,-25.25,76.25 ± 2.59,50 to 100,1/11,3/6,3/3,380,13000
"CN1CCN(c2ncnc3c2ncn3[C@H]2CO[C@H]3[C@@H]2OC[C@@H]3O[N+](=O)[O-])CC1 [Example 9b, 5-[6-(4-Methylpiperazino)-purin-9-yl]-5-desoxy-1.4;3.6-dianhydro-L-iditol 2-nitrate]",70.25 ± 8.39,-2.25,72.50 ± 6.20,69.75 ± 7.44,-3.50,73.25 ± 6.24,59.75 ± 4.82,-12.75,72.50 ± 5.24,50 to 100,,4/6,3/3,2650,25000
